Reference: patent US20200055871A1, “ACTIVATORS OF THE RETINOIC ACID INDUCIBLE GENE "RIG-I" PATHWAY AND METHODS OF USE THEREOF” (Kineta Immuno-Oncology LLC, priority 2018, published 2020)

Assays:
[1] = system: IRF3-deficient THP1-Lucia™ ISG IRF3−/− cells; assay: THP1-Lucia ISG IRF3−/− reporter assay (IRF3-deficient control cells); assay type: cell-based, human; conditions: compound 5 to 20 μM, 18 h
Description: The promoter was comprised of five IFN-stimulated response elements (ISRE) fused to an ISG54 minimal promoter which is unresponsive to NF-kB or AP-1 pathways. […] The IRF3-deficient THP1-Lucia™ ISG IRF3−/−reporter cell line was generated by CRISPR technology from the parent THP1-Lucia™ ISG reporter cell line.
THP1-Lucia™ ISG cells and IRF3-deficient THP1-Lucia™ ISG IRF3−/−cells were differentiated with PMA (100 ng/ml) and stimulated with compounds at the indicated concentrations (5 to 20 μM), positive control, or not treated (background). Luciferase secretion was quantified using the QUANTI-Luc luciferase assay system (InvivoGen) 18 h after stimulation. Data are shown as fold increase luciferase activity over background in Table 7 and represent the IRF3-dependent ISG54 promoter activity by the THP1-Lucia™ ISG cells in response to compounds. […] The fold increase of compounds (10 μM, *20 μM, **5 μM) induced IRF3 dependent luciferase activity is indicated as follows: “≠” indicates less than 2.4 fold increase; “+” indicates a 2.4-4.9 fold increase; “++” indicates a 5-9.9 fold increase; “+++” indicates a 10-19 fold increase; “++++” indicates a 20-39 fold increase; “+++++” indicates greater than or equal to 40 fold increase.

[2] = system: IRF3 signaling pathway in THP1-Lucia™ ISG cells; assay: THP1-Lucia ISG reporter assay: induction of IRF3-dependent gene expression (secreted luciferase); assay type: cell-based, human; conditions: PMA-differentiated cells, 18 h after stimulation
Procedure, shortened: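 PMA-differentiated THP-1 reporter cells (ISRE/ISG54 promoter driving secreted luciferase), plus CRISPR IRF3−/− line, treated with compounds at 5–20 μM (mostly 10 μM). Luciferase measured 18 h later; values are fold increase over untreated background, binned from <2.4 to ≥40.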

[3] = system: RIG-I deficient CT26 RIG-I−/− cells; assay: CXCL10 secretion by RIG-I deficient CT26 RIG-I−/− cells (ELISA); assay type: cell-based, murine; conditions: compound 5 to 20 μM, 24 h; also: key: −: about 0 pg/mL of CXCL10, or below the level of quantitation
Procedure, shortened: (§1)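 CT26 murine colon carcinoma cells, parental or CRISPR RIG-I−/−, seeded and grown 24 hr at 37° C, then treated with compounds at 10 μM, or at 5 or 20 μM for some. Secreted CXCL10 measured by ELISA in supernatants 24 h after treatment and reported in pg/mL bands.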

[4] = system: murine CT26 colon carcinoma cells; assay: RIG-I dependent CXCL10 secretion by CT26 cells (ELISA); assay type: cell-based; conditions: supernatant 24 h after stimulation
Procedure, shortened: as §1

| Compound | fold increase of luciferase activity, THP1 ISG IRF3−/− [1] | fold increase of IRF3-dependent luciferase activity over background, THP1 ISG ([2]; 10 μM compound) | CXCL10 secretion, CT26 RIG-I−/− [3] | CXCL10 secretion, CT26 ([4]; 10 μM compound) | CXCL10 secretion, CT26 ([4]; 20 μM compound (*)) | fold increase of IRF3-dependent luciferase activity over background, THP1 ISG ([2]; 20 μM compound (*)) | CXCL10 secretion, CT26 ([4]; 5 μM compound (**)) | fold increase of IRF3-dependent luciferase activity over background, THP1 ISG ([2]; 5 μM compound (**)) |
| --- | --- | --- | --- | --- | --- | --- | --- | --- |
| O=C(Nc1cc2ccc3scnc3c2s1)c1cc2ccccc2cc1OCCN1CCOCC1 [Example 55, N-{5,12-dithia-3-azatricyclo[7.3.0.0^2,^6]dodeca-1,3,6,8,10-pentaen-11-yl}-3-[2-(morpholin-4-yl)ethoxy]naphthalene-2-carboxamide] | − (less than 0.5 fold above baseline was considered below the level of quantitation) | +++ (a 10-19 fold increase) | − | ≠ (less than 100 pg/mL) |  |  |  |  |
| O=C(Nc1cc2ccc3scnc3c2o1)c1cc2ccccc2cc1OCCCCN1CCOCC1 [Example 56, 3-[4-(morpholin-4-yl)butoxy]-N-{12-oxa-5-thia-3-azatricyclo [7.3.0.0^2,^6]dodeca-1,3,6,8,10-pentaen-11-yl}naphthalene-2-carboxamide] | − (less than 0.5 fold above baseline was considered below the level of quantitation) | + (a 2.4-4.9 fold increase) | − | +++ (400-799 pg/mL) |  |  |  |  |
| O=C(Nc1cc2ccc3scnc3c2o1)c1cc2ccccc2cc1OCCN1CCOCC1 [Example 57, 3-[2-(morpholin-4-yl)ethoxy]-N-{12-oxa-5-thia-3-azatricyclo [7.3.0.0^2,^6]dodeca-1,3,6,8,10-pentaen-11-yl}naphthalene-2-carboxamide] | − (less than 0.5 fold above baseline was considered below the level of quantitation) | +++ (a 10-19 fold increase) | − |  | ++* (200-399 pg/mL) |  |  |  |
| O=C(Nc1nc2ccc3scnc3c2o1)c1cc2ccccc2cc1OCCN1CCOCC1 [Example 58, 3-[2-(morpholin-4-yl)ethoxy]-N-{3-oxa-10-thia-5,12-diazatricyclo [7.3.0.0^2,^6]dodeca-1,4,6,8,11-pentaen-4-yl}naphthalene-2-carboxamide] | − (less than 0.5 fold above baseline was considered below the level of quantitation) | + (a 2.4-4.9 fold increase) | − | + (100-199 pg/mL) |  |  |  |  |
| O=C(Nc1nc2ccc3scnc3c2o1)c1cc2ccccc2cc1OCCCCN1CCOCC1 [Example 59, 3-[4-(morpholin-4-yl)butoxy]-N-{3-oxa-10-thia-5,12-diazatricyclo [7.3.0.0^2,^6]dodeca-1,4,6,8,11-pentaen-4-yl}naphthalene-2-carboxamide] | − (less than 0.5 fold above baseline was considered below the level of quantitation) | ++ (a 5-9.9 fold increase) | − | +++++ (greater than or equal to 1600 pg/ml) |  |  |  |  |
| Cn1c(C(=O)Nc2cc3ccc4scnc4c3s2)cc2ccccc21 [Example 60, N-{5,12-dithia-3-azatricyclo[7.3.0.0^2,^6]dodeca-1,3,6,8,10-pentaen-11-yl}-1-methyl-1H-indole-2-carboxamide] | − (less than 0.5 fold above baseline was considered below the level of quantitation) |  | − |  | +* (100-199 pg/mL) | +* (a 2.4-4.9 fold increase) |  |  |
| O=C(Nc1cc2ccc3scnc3c2s1)c1cc2c(cc1OCCN1CCOCC1)OCO2 [Example 63, N-{5,12-dithia-3-azatricyclo[7.3.0.0^2,^6]dodeca-1,3,6,8,10-pentaen-11-yl}-6-[2-(morpholin-4-yl)ethoxy]-2H-1,3-benzodioxole-5-carboxamide] | − (less than 0.5 fold above baseline was considered below the level of quantitation) | ≠ (less than 2.4 fold increase) | − | ≠ (less than 100 pg/mL) |  |  |  |  |
| O=C(Nc1cc2ccc3scnc3c2s1)c1cc2ccsc2cc1OCCCCN1CCOCC1 [Example 66, N-{5,12-dithia-3-azatricyclo[7.3.0.0^2,^6]dodeca-1,3,6,8,10-pentaen-11-yl}-6-[4-(morpholin-4-yl)butoxy]-1-benzothiophene-5-carboxamide] | − (less than 0.5 fold above baseline was considered below the level of quantitation) | + (a 2.4-4.9 fold increase) | − | +++++ (greater than or equal to 1600 pg/ml) |  |  |  |  |
| O=C(Nc1nc2ccc3[nH]cnc3c2s1)c1cc2ccccc2cc1OCCN1CCOCC1 [Example 72, 3-[2-(morpholin-4-yl)ethoxy]-N-{3-thia-5,10,12-triazatricyclo[7.3.0.0^2,^6]dodeca-1,4,6,8,11-pentaen-4-yl}naphthalene-2-carboxamide] | − (less than 0.5 fold above baseline was considered below the level of quantitation) | ++ (a 5-9.9 fold increase) | − | +++ (400-799 pg/mL) |  |  |  |  |
| N-(3-bromophenyl)-11-methyl-3,10-dithia-5,12-diazatricyclo[7.3.0.0^2,^6]dodeca-1,4,6,8,11-pentaene-4-carboxamide [Example 10] | − (less than 0.5 fold above baseline was considered below the level of quantitation) | + (a 2.4-4.9 fold increase) | − | +++ (400-799 pg/mL) |  |  |  |  |
| N-[11-(methylsulfanyl)-3,10-dithia-5,12-diazatricyclo[7.3.0.0^2,^6]dodeca-1,4,6,8,11-pentaen-4-yl]-3-[4-(morpholin-4-yl)butoxy]naphthalene-2-carboxamide [Example 37] | − (less than 0.5 fold above baseline was considered below the level of quantitation) | +++ (a 10-19 fold increase) | − | ++++ (800 to 1599 pg/mL) |  |  |  |  |
| N-{5,12-dithia-3-azatricyclo[7.3.0.0^2,^6]dodeca-1,3,6,8,10-pentaen-11-yl}-3-[2-(morpholin-4-yl)ethoxy]-[1,1′-biphenyl]-4-carboxamide [Example 61] | − (less than 0.5 fold above baseline was considered below the level of quantitation) | ++++ (a 20-39 fold increase) | − |  |  |  | ++** (200-399 pg/mL) |  |
| [N-(7-hydroxybenzo[1,2-d:3,4-d′]bis(thiazole)-2-yl)-3-(4-morpholinobutoxy)-2-naphthamide hydrochloride] [Example 44] | − (less than 0.5 fold above baseline was considered below the level of quantitation) |  | − | +++ (400-799 pg/mL) |  |  |  | ++** (a 5-9.9 fold increase) |
